In general, IC50 refers to the concentration at which inhibition is half-maximal.

Assay [1] has as its system IL-6. In words: In vitro immunomodulatory assay, IL-6. It is filed as cell-based, human. The note with it: HCT-116 cells, 24 h, at the IC50 concentration.
The test system of assay [2] is HCT-116 cells (colon cancer). In words: MTT anti-proliferative assay, HCT-116. It is filed as cell-based. To be noted: Homo sapiens, HCT-116, 48 h, read-out: In vitro cytotoxicity IC50 HCT 116. (Tetrazolium assays rely on reduction of a dye to a coloured formazan, in cell work by metabolically active cells.)
Assay [3] has as its system MCF-7 cells (breast cancer). In words: MTT anti-proliferative assay, MCF-7. To be noted: Homo sapiens, MCF7, 48 h, read-out: In vitro cytotoxicity IC50 MCF-7. It is filed as cell-based.

Each structure is given as a SMILES string.

On to `C[C@@H]1C[C@H]2[C@@H]3CCC4=CC(=O)C=C[C@]4(C)[C@@]3(F)[C@@H](O)C[C@]2(C)[C@@]1(O)C(=O)CO` [Dexamethasone], for which, in assay [1], the “Pro-inflammatory factors inhibition IL-6” value is 93.15 pg per mL %. Consider `CNC(=O)c1cc(Oc2ccc(NC(=O)Nc3ccc(Cl)c(C(F)(F)F)c3)cc2)ccn1` [Sorafenib], for which the IC50 in assay [2] is 8.96 ± 0.05 µM; in assay [3], 11.83 ± 0.07 µM.

(Values after PMC10363774 (RSC Advances, 2023).)
